Results as given in ChEMBL document CHEMBL4387753 (Bioorg Med Chem, 2019).
Converted amounts (≈) assume the structure as drawn.

What was measured:
Type in all cases: functional
Staphylococcus aureus [1] = test: Antibacterial activity against penicillin-resistant Staphylococcus aureus clinical isolate incubated for 24 hrs by CLSI protocol based broth microdilution method
Staphylococcus aureus [2] = test: Antibacterial activity against methicillin-resistant Staphylococcus aureus ATCC 43300 incubated for 24 hrs by CLSI protocol based broth microdilution method; conditions: ATCC 43300, 24 h
Staphylococcus aureus [3] = test: Antibacterial activity against Staphylococcus aureus ATCC 25923 incubated for 24 hrs by CLSI protocol based broth microdilution method; conditions: ATCC 25923, 24 h
Pseudomonas aeruginosa = test: Antibacterial activity against Pseudomonas aeruginosa ATCC 27853 incubated for 24 hrs by CLSI protocol based broth microdilution method; conditions: ATCC 27853, 24 h
Bacillus pumilus = test: Antibacterial activity against Bacillus pumilus CMCC63202 incubated for 24 hrs by CLSI protocol based broth microdilution method; conditions: CMCC63202, 24 h
Escherichia coli = test: Antibacterial activity against Escherichia coli ATCC 25922 incubated for 24 hrs by CLSI protocol based broth microdilution method; conditions: ATCC 25922, 24 h
Bacillus subtilis = test: Antibacterial activity against Bacillus subtilis ATCC 9372 incubated for 24 hrs by CLSI protocol based broth microdilution method; conditions: ATCC 9372, 24 h
Staphylococcus aureus [4] = test: Antibacterial activity against Staphylococcus aureus clinical isolate incubated for 24 hrs by CLSI protocol based broth microdilution method

SMILES | MIC (Staphylococcus aureus [1]) [µg/mL] | MIC (Staphylococcus aureus [2]) [µg/mL] | MIC (Staphylococcus aureus [3]) [µg/mL] | MIC (Pseudomonas aeruginosa) [µg/mL] | MIC (Bacillus pumilus) [µg/mL] | MIC (Escherichia coli) [µg/mL] | MIC (Bacillus subtilis) [µg/mL] | MIC (Staphylococcus aureus [4]) [µg/mL]
CCCCCCCCn1c(COc2ccc(F)c(C(N)=O)c2F)nn(-c2ccc(Br)cc2)c1=O | > 64 | > 64 | > 64 | > 64 | > 64 | > 64 | > 64 | 
NC(=O)c1c(F)ccc(OCc2nn(-c3ccc(Cl)cc3Cl)c(=O)o2)c1F | 4 (≈ 9.61 µM) | 2 (≈ 4.81 µM) | 4 (≈ 9.61 µM) | > 64 | 0.5 (≈ 1.2 µM) | > 64 | 1 (≈ 2.4 µM) | 4 (≈ 9.61 µM)
COc1ccc(-n2nc(COc3ccc(F)c(C(N)=O)c3F)oc2=O)cc1 | 4 (≈ 10.6 µM) | 4 (≈ 10.6 µM) | 2 (≈ 5.3 µM) | > 64 | 8 (≈ 21.2 µM) | > 64 | 1 (≈ 2.65 µM) | 4 (≈ 10.6 µM)
NC(=O)c1c(F)ccc(OCc2nn(-c3ccc(C(F)(F)F)cc3)c(=O)o2)c1F | 4 (≈ 9.63 µM) | 2 (≈ 4.82 µM) | 4 (≈ 9.63 µM) | > 64 | 2 (≈ 4.82 µM) | > 64 | 0.125 (≈ 0.301 µM) | 4 (≈ 9.63 µM)
CC(C)(C)c1ccc(-n2nc(CCOc3ccc(F)c(C(N)=O)c3F)oc2=O)cc1 | 4 (≈ 9.58 µM) | 1 (≈ 2.4 µM) | 4 (≈ 9.58 µM) | > 64 | ≤ 0.125 | > 64 | 0.25 (≈ 0.599 µM) | 2 (≈ 4.79 µM)
CC(C)(C)c1ccc(N2N=C(COc3ccc(F)c(C(N)=O)c3F)CC2=O)cc1 | 64 (≈ 159 µM) | > 64 | > 64 | > 64 | > 64 | > 64 | > 64 | 
NC(=O)c1c(F)ccc(OCc2nn(-c3ccc(Br)cc3)c(=O)n2Cc2ccccc2)c1F | > 64 | > 64 | > 64 | > 64 | > 64 | > 64 | > 64 | 
CC(C)(C)c1ccc(-n2nc(COc3ccc(F)c(C(N)=O)c3F)oc2=O)cc1 | 16 (≈ 39.7 µM) | 8 (≈ 19.8 µM) | 8 (≈ 19.8 µM) | > 64 | 2 (≈ 4.96 µM) | > 64 | 1 (≈ 2.48 µM) | 16 (≈ 39.7 µM)
CC[C@H]1OC(=O)[C@H](C)[C@@H](O[C@H]2C[C@@](C)(OC)[C@@H](O)[C@H](C)O2)[C@H](C)[C@@H](O[C@@H]2O[C@H](C)C[C@H](N(C)C)[C@H]2O)[C@](C)(O)C[C@@H](C)C(=O)[C@H](C)[C@@H](O)[C@]1(C)O [ERYTHROMYCIN] |  | > 64 | ≤ 0.125 | 32 (≈ 43.6 µM) | ≤ 0.125 | 16 (≈ 21.8 µM) | ≤ 0.125 | > 64
Cc1ccccc1-n1nc(COc2ccc(F)c(C(N)=O)c2F)oc1=O | > 64 | 64 (≈ 177 µM) | > 64 | > 64 | 16 (≈ 44.3 µM) | > 64 | 16 (≈ 44.3 µM) | > 64
CC(C)Cn1c(COc2ccc(F)c(C(N)=O)c2F)nn(-c2ccc(Br)cc2)c1=O | > 64 | > 64 | > 64 | > 64 | > 64 | > 64 | > 64 | 
CCCCc1ccc(-n2nc(COc3ccc(F)c(C(N)=O)c3F)oc2=O)cc1 | > 64 | 64 (≈ 159 µM) | > 64 | > 64 | 0.5 (≈ 1.24 µM) | > 64 | 0.015 (≈ 0.0372 µM) | 2 (≈ 4.96 µM)
CC(C)c1ccc(-n2nc(COc3ccc(F)c(C(N)=O)c3F)oc2=O)cc1 | 32 (≈ 82.2 µM) | 16 (≈ 41.1 µM) | 16 (≈ 41.1 µM) | > 64 | 2 (≈ 5.14 µM) | > 64 | 1 (≈ 2.57 µM) | 16 (≈ 41.1 µM)
CC(C)(C)n1nc(COc2ccc(F)c(C(N)=O)c2F)oc1=O | > 64 | > 64 | > 64 | > 64 | > 64 | > 64 | 32 (≈ 97.8 µM) | 16 (≈ 48.9 µM)
NC(=O)c1c(F)ccc(OCc2nn(-c3ccc(Cl)cc3)c(=O)o2)c1F | 2 (≈ 5.24 µM) | 2 (≈ 5.24 µM) | 1 (≈ 2.62 µM) | > 64 | 2 (≈ 5.24 µM) | > 64 | 0.25 (≈ 0.655 µM) | 2 (≈ 5.24 µM)
NC(=O)c1c(F)ccc(OCc2nn(-c3ccccc3)c(=O)o2)c1F | 32 (≈ 92.1 µM) | 16 (≈ 46.1 µM) | 16 (≈ 46.1 µM) | > 64 | 64 (≈ 184 µM) | > 64 | 4 (≈ 11.5 µM) | 16 (≈ 46.1 µM)
NC(=O)c1c(F)ccc(OCC2=NN(c3ccc(Cl)cc3)C(=O)C2)c1F | > 64 | > 64 | > 64 | > 64 | > 64 | > 64 | > 64 | 
CCCn1c(COc2ccc(F)c(C(N)=O)c2F)nn(-c2ccc(Br)cc2)c1=O | > 64 | 32 (≈ 68.5 µM) | > 64 | > 64 | > 64 | > 64 | 32 (≈ 68.5 µM) | 
